Reference: BindingDB's records for doi:10.1016/j.chembiol.2017.02.003 (University of Colorado, 2017)

Experiments:
Experiment in all cases: Caspase Catalytic Activity Assay
Conditions in all cases: pH 7.4
[1] = target: T1, Caspase-5 (Homo sapiens, UniProt P51878)
T1 sequence (P51878 whole entry): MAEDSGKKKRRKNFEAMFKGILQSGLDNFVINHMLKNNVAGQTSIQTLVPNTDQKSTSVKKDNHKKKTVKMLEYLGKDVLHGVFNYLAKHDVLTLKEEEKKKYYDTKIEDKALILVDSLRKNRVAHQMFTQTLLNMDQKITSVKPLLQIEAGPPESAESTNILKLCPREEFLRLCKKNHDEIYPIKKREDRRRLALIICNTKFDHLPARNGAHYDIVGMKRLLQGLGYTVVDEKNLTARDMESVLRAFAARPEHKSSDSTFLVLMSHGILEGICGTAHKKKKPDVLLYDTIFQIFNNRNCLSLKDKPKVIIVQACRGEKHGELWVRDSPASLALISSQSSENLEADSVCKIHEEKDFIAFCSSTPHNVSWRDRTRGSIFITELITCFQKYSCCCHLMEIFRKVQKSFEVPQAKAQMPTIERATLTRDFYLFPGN
Protocol: (§1) ECB (Enzo Caspase Buffer): 50 mM HEPES (pH 7.4), 100 mM NaCl, 0.5% Tween 20, 10 mM DTT, and 10% glycerol; SCB (Standard Caspase Buffer): 20 mM PIPES (pH 7.5), 100 mM NaCl, 1 mM EDTA, 10 mM DTT, and 10% sucrose; HCB (High-Citrate Buffer): 50 mM Tris-HCl (pH 7.5), 1 M sodium citrate, 10 mM DTT, and 10% sucrose. Activity was measured as the change in luminescent signal for at least 30 min.

[2] = target: T2, Caspase-1 (Homo sapiens, UniProt P29466)
T2 sequence (P29466 whole entry): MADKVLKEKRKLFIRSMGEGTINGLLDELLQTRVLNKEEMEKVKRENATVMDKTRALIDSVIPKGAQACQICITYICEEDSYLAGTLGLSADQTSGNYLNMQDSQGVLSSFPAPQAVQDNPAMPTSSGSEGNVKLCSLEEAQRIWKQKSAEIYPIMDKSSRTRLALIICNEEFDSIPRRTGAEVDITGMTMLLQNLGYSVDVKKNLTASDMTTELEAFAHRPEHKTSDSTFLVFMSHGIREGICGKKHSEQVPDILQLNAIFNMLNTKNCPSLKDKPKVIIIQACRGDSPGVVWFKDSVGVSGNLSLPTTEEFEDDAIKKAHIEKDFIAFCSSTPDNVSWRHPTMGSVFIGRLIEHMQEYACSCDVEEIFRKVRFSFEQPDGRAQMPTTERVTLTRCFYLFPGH
Protocol: as §1

[3] = target: T3, Caspase-9 (Homo sapiens, UniProt P55211)
T3 sequence (P55211 whole entry): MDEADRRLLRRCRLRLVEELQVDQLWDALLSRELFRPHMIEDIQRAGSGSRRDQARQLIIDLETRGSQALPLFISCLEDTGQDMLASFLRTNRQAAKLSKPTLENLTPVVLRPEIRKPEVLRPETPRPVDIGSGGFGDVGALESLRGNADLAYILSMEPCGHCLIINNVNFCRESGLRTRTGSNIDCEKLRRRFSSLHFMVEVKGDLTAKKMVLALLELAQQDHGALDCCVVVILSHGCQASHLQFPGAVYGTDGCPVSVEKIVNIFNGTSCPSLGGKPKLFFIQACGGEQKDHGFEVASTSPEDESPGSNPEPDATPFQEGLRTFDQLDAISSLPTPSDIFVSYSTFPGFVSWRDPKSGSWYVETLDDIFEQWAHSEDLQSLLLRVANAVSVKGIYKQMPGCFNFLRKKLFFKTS
Protocol: as §1

[4] = target: T4, Caspase-3 (Homo sapiens, UniProt P42574)
T4 sequence (P42574 whole entry): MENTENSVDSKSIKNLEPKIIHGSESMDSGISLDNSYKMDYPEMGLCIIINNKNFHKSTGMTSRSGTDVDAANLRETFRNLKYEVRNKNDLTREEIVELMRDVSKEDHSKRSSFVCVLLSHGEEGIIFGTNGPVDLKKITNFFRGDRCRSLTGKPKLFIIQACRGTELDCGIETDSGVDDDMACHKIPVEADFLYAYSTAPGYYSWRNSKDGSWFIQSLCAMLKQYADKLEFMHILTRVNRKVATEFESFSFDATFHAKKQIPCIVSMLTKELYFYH
Protocol: as §1

[5] = target: T5, Caspase-4 (Homo sapiens, UniProt P49662)
T5 sequence (P49662 whole entry): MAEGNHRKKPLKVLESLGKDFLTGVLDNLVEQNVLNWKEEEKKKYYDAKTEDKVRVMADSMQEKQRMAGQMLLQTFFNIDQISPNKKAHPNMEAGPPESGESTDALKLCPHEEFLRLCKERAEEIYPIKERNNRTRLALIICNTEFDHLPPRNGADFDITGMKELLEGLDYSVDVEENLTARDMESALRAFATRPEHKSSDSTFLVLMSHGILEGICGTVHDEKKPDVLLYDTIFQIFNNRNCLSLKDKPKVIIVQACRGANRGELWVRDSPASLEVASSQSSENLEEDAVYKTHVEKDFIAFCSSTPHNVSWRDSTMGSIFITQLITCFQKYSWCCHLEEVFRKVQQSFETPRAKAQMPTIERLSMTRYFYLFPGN
Protocol: as §1

Row | IC50 [1] | IC50 [2] | IC50 [3] | IC50 [4] | IC50 [5] | SMILES
1 | 590 nM | 3600 nM | 300 nM | 1400 nM | 570 nM | CC(C(=O)O)c1ccc(N2Cc3ccccc3C2=O)cc1 (stereo not drawn) [(+)-2-(4-(1-oxoisoindolin-2-yl)phenyl)propanoic acid]
2 | 2600 nM | 35000 nM | 1800 nM | 14000 nM | 2000 nM | O=C(O)Cc1ccc(-c2ccccc2)cc1 [Felbinac]

More lines, now with the values behind:

Row | SMILES | IC50 [1] | IC50 [2] | IC50 [3] | IC50 [4] | IC50 [5]
3 | CC(C(=O)O)c1cccc(C(=O)c2ccccc2)c1 (stereo not given) [2-(3-benzoylphenyl)propanoic acid] | 10000 nM | > 66000 nM | 10000 nM | 50000 nM | 10000 nM
4 | O=C(O)CCC(=O)c1ccc(-c2ccccc2)cc1 [3-(4-biphenylylcarbonyl)propionic acid] | 870 nM | 4400 nM | 760 nM | 1200 nM | 570 nM
5 | COc1ccc2cc([C@H](C)C(=O)O)ccc2c1 [(2S)-2-(6-methoxynaphthalen-2-yl)propanoic acid] | 11000 nM | > 66000 nM | 10000 nM | 55000 nM | 15000 nM
6 | CC(C(=O)O)c1ccc(C(=O)c2ccccc2)s1 (stereo not given) [Tiaprofenic acid] | 470 nM | 1600 nM | 2200 nM | 810 nM | 380 nM
7 | O=C(c1ccccc1)c1ccc2n1CCC2C(=O)O (stereo not given) [Toradol] | 1000 nM | 18000 nM | 850 nM | 2500 nM | 860 nM
